Assay results from PubChem BioAssay (NCI).
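How tested: cells in 96-well plates exposed to compound for 48 hours at five concentrations. GI50 marks 50% less growth. TGI marks complete inhibition of growth.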

How the values were obtained:
Assay in all cases: growth of human tumour cells (NCI), 48 h
HOP-62 NSCLC = test system: HOP-62 NSCLC
EKVX NSCLC = test system: EKVX NSCLC
LOX IMVI melanoma = test system: LOX IMVI melanoma
MDA-MB-468 breast = test system: MDA-MB-468 breast
HCT-116 colon = test system: HCT-116 colon
OVCAR-5 ovarian = test system: OVCAR-5 ovarian
NCI-H460 lung = test system: NCI-H460 lung
OVCAR-8 ovarian = test system: OVCAR-8 ovarian
SK-MEL-5 melanoma = test system: SK-MEL-5 melanoma
ACHN renal = test system: ACHN renal
HT29 colon = test system: HT29 colon
RXF 393 renal = test system: RXF 393 renal
KM12 colon = test system: KM12 colon
SK-MEL-28 melanoma = test system: SK-MEL-28 melanoma
UACC-62 melanoma = test system: UACC-62 melanoma
SK-MEL-2 melanoma = test system: SK-MEL-2 melanoma
SNB-19 CNS = test system: SNB-19 CNS
A498 renal = test system: A498 renal
NCI-H226 lung = test system: NCI-H226 lung
M14 melanoma = test system: M14 melanoma
SNB-75 CNS = test system: SNB-75 CNS
MALME-3M melanoma = test system: MALME-3M melanoma
UACC-257 melanoma = test system: UACC-257 melanoma
MOLT-4 leukemia = test system: MOLT-4 leukemia
SK-OV-3 ovarian = test system: SK-OV-3 ovarian
HOP-92 NSCLC = test system: HOP-92 NSCLC
NCI/ADR-RES ovarian = test system: NCI/ADR-RES ovarian
OVCAR-4 ovarian = test system: OVCAR-4 ovarian
HCT-15 colon = test system: HCT-15 colon
MDA-MB-435 = test system: MDA-MB-435
MCF7 breast = test system: MCF7 breast
CCRF-CEM leukemia = test system: CCRF-CEM leukemia
SR leukemia = test system: SR leukemia
T-47D breast = test system: T-47D breast
NCI-H522 lung = test system: NCI-H522 lung
TK-10 renal = test system: TK-10 renal
BT-549 breast = test system: BT-549 breast
A549 NSCLC = test system: A549 NSCLC
SF-295 CNS = test system: SF-295 CNS
U251 CNS = test system: U251 CNS
NCI-H23 lung = test system: NCI-H23 lung
MDA-MB-231 breast = test system: MDA-MB-231 breast
CAKI-1 renal = test system: CAKI-1 renal
SW-620 colon = test system: SW-620 colon
HCC-2998 colon = test system: HCC-2998 colon
HS 578T breast = test system: HS 578T breast
786-0 renal = test system: 786-0 renal
SF-539 CNS = test system: SF-539 CNS
IGROV1 ovarian = test system: IGROV1 ovarian
HL-60(TB) leukemia = test system: HL-60(TB) leukemia
SF-268 CNS = test system: SF-268 CNS
UO-31 renal = test system: UO-31 renal
OVCAR-3 ovarian = test system: OVCAR-3 ovarian
PC-3 prostate = test system: PC-3 prostate
SN12C renal = test system: SN12C renal
DU-145 prostate = test system: DU-145 prostate
COLO 205 colon = test system: COLO 205 colon

Question: For `COc1cc2c3c(n(CCCNC(C)C)c(=O)c2cc1OC)-c1nc2c(cc1C3=O)OCO2`, which GI50 (HOP-62 NSCLC) is on record?
Answer: 0.474 µM

Question: What about the TGI (HOP-62 NSCLC) of the same compound?
Answer: 18.5 µM

Question: And the GI50 (EKVX NSCLC)?
Answer: 10.7 µM

Question: And the TGI (EKVX NSCLC)?
Answer: 23.6 µM

Question: What about the GI50 (LOX IMVI melanoma) of the same compound?
Answer: 1.01 µM

Question: And the TGI (LOX IMVI melanoma)?
Answer: 2.21 µM

Question: What about the GI50 (MDA-MB-468 breast) of the same compound?
Answer: 0.492 µM

Question: What about the TGI (MDA-MB-468 breast) of the same compound?
Answer: 6.08 µM

Question: And the GI50 (HCT-116 colon)?
Answer: 1.04 µM

Question: And the TGI (HCT-116 colon)?
Answer: 2.28 µM

Question: And the GI50 (OVCAR-5 ovarian)?
Answer: 13 µM

Question: And the TGI (OVCAR-5 ovarian)?
Answer: 26.3 µM

Question: And the GI50 (NCI-H460 lung)?
Answer: 0.294 µM

Question: And the TGI (NCI-H460 lung)?
Answer: 11.6 µM

Question: What about the GI50 (OVCAR-8 ovarian) of the same compound?
Answer: 5.28 µM

Question: What about the TGI (OVCAR-8 ovarian) of the same compound?
Answer: 24.9 µM

Question: And the GI50 (SK-MEL-5 melanoma)?
Answer: 1.39 µM

Question: What about the TGI (SK-MEL-5 melanoma) of the same compound?
Answer: 5.35 µM

Question: And the GI50 (ACHN renal)?
Answer: 1.5 µM

Question: What about the TGI (ACHN renal) of the same compound?
Answer: 13.2 µM

Question: What about the GI50 (HT29 colon) of the same compound?
Answer: 1.35 µM

Question: And the TGI (HT29 colon)?
Answer: 22.7 µM

Question: And the GI50 (RXF 393 renal)?
Answer: 2.26 µM

Question: What about the TGI (RXF 393 renal) of the same compound?
Answer: 14.7 µM

Question: And the GI50 (KM12 colon)?
Answer: 12.8 µM

Question: And the TGI (KM12 colon)?
Answer: 28.6 µM

Question: What about the GI50 (SK-MEL-28 melanoma) of the same compound?
Answer: 4.94 µM

Question: And the TGI (SK-MEL-28 melanoma)?
Answer: 18.2 µM

Question: And the GI50 (UACC-62 melanoma)?
Answer: 9.84 µM

Question: And the TGI (UACC-62 melanoma)?
Answer: 23.6 µM

Question: What about the GI50 (SK-MEL-2 melanoma) of the same compound?
Answer: 21.1 µM

Question: What about the TGI (SK-MEL-2 melanoma) of the same compound?
Answer: 40.6 µM

Question: What about the GI50 (SNB-19 CNS) of the same compound?
Answer: 2 µM

Question: What about the TGI (SNB-19 CNS) of the same compound?
Answer: 18.7 µM

Question: And the GI50 (A498 renal)?
Answer: 12.2 µM

Question: And the TGI (A498 renal)?
Answer: 27 µM

Question: What about the GI50 (NCI-H226 lung) of the same compound?
Answer: 2.22 µM

Question: And the TGI (NCI-H226 lung)?
Answer: 13.3 µM

Question: And the GI50 (M14 melanoma)?
Answer: 3.42 µM

Question: And the TGI (M14 melanoma)?
Answer: 18.1 µM

Question: What about the GI50 (SNB-75 CNS) of the same compound?
Answer: 0.825 µM

Question: What about the TGI (SNB-75 CNS) of the same compound?
Answer: 12.4 µM

Question: What about the GI50 (MALME-3M melanoma) of the same compound?
Answer: 1.54 µM

Question: And the TGI (MALME-3M melanoma)?
Answer: 3.01 µM

Question: And the GI50 (UACC-257 melanoma)?
Answer: 13.8 µM

Question: And the TGI (UACC-257 melanoma)?
Answer: 29 µM

Question: And the GI50 (MOLT-4 leukemia)?
Answer: 0.0457 µM

Question: And the TGI (MOLT-4 leukemia)?
Answer: 2.13 µM

Question: And the GI50 (SK-OV-3 ovarian)?
Answer: 2.04 µM

Question: What about the TGI (SK-OV-3 ovarian) of the same compound?
Answer: 19.2 µM

Question: What about the GI50 (HOP-92 NSCLC) of the same compound?
Answer: 10.6 µM

Question: And the TGI (HOP-92 NSCLC)?
Answer: 24.9 µM

Question: What about the GI50 (NCI/ADR-RES ovarian) of the same compound?
Answer: 1.52 µM

Question: What about the TGI (NCI/ADR-RES ovarian) of the same compound?
Answer: 3.25 µM

Question: And the GI50 (OVCAR-4 ovarian)?
Answer: 17.1 µM

Question: What about the TGI (OVCAR-4 ovarian) of the same compound?
Answer: 39.9 µM

Question: What about the GI50 (HCT-15 colon) of the same compound?
Answer: 1.21 µM

Question: What about the TGI (HCT-15 colon) of the same compound?
Answer: 2.61 µM

Question: What about the GI50 (MDA-MB-435) of the same compound?
Answer: 2.16 µM

Question: And the TGI (MDA-MB-435)?
Answer: 10.9 µM

Question: What about the GI50 (MCF7 breast) of the same compound?
Answer: 0.101 µM

Question: And the TGI (MCF7 breast)?
Answer: 3.07 µM

Question: What about the GI50 (CCRF-CEM leukemia) of the same compound?
Answer: 0.0437 µM

Question: And the TGI (CCRF-CEM leukemia)?
Answer: 1.32 µM

Question: What about the GI50 (SR leukemia) of the same compound?
Answer: 0.359 µM

Question: What about the TGI (SR leukemia) of the same compound?
Answer: 2.77 µM

Question: What about the GI50 (T-47D breast) of the same compound?
Answer: 4.76 µM

Question: What about the TGI (T-47D breast) of the same compound?
Answer: 28.6 µM

Question: And the GI50 (NCI-H522 lung)?
Answer: 0.768 µM

Question: What about the TGI (NCI-H522 lung) of the same compound?
Answer: 27.6 µM

Question: What about the GI50 (TK-10 renal) of the same compound?
Answer: 19.6 µM

Question: And the TGI (TK-10 renal)?
Answer: 35.4 µM

Question: And the GI50 (BT-549 breast)?
Answer: 4.17 µM

Question: And the TGI (BT-549 breast)?
Answer: 23.1 µM

Question: What about the GI50 (A549 NSCLC) of the same compound?
Answer: 2.52 µM

Question: And the TGI (A549 NSCLC)?
Answer: 24.2 µM

Question: What about the GI50 (SF-295 CNS) of the same compound?
Answer: 0.348 µM

Question: What about the TGI (SF-295 CNS) of the same compound?
Answer: 15 µM

Question: What about the GI50 (U251 CNS) of the same compound?
Answer: 0.588 µM

Question: What about the TGI (U251 CNS) of the same compound?
Answer: 19.8 µM

Question: And the GI50 (NCI-H23 lung)?
Answer: 0.587 µM

Question: And the TGI (NCI-H23 lung)?
Answer: 12.4 µM

Question: What about the GI50 (MDA-MB-231 breast) of the same compound?
Answer: 1.42 µM

Question: What about the TGI (MDA-MB-231 breast) of the same compound?
Answer: 2.81 µM

Question: What about the GI50 (CAKI-1 renal) of the same compound?
Answer: 2.43 µM

Question: And the TGI (CAKI-1 renal)?
Answer: 19.2 µM

Question: And the GI50 (SW-620 colon)?
Answer: 0.724 µM

Question: What about the TGI (SW-620 colon) of the same compound?
Answer: 21.3 µM

Question: And the GI50 (HCC-2998 colon)?
Answer: 9.38 µM

Question: And the TGI (HCC-2998 colon)?
Answer: 21.5 µM

Question: What about the GI50 (HS 578T breast) of the same compound?
Answer: 11.8 µM

Question: What about the TGI (HS 578T breast) of the same compound?
Answer: 33 µM

Question: What about the GI50 (786-0 renal) of the same compound?
Answer: 1.55 µM

Question: And the TGI (786-0 renal)?
Answer: 2.98 µM

Question: What about the GI50 (SF-539 CNS) of the same compound?
Answer: 1.52 µM

Question: What about the TGI (SF-539 CNS) of the same compound?
Answer: 7.26 µM

Question: What about the GI50 (IGROV1 ovarian) of the same compound?
Answer: 14.8 µM

Question: And the TGI (IGROV1 ovarian)?
Answer: 30.7 µM

Question: And the GI50 (HL-60(TB) leukemia)?
Answer: 3.77 µM

Question: What about the TGI (HL-60(TB) leukemia) of the same compound?
Answer: 21.2 µM

Question: What about the GI50 (SF-268 CNS) of the same compound?
Answer: 1.17 µM

Question: And the TGI (SF-268 CNS)?
Answer: 23.4 µM

Question: What about the GI50 (UO-31 renal) of the same compound?
Answer: 5.86 µM

Question: And the TGI (UO-31 renal)?
Answer: 20.4 µM

Question: What about the GI50 (OVCAR-3 ovarian) of the same compound?
Answer: 14.3 µM

Question: What about the TGI (OVCAR-3 ovarian) of the same compound?
Answer: 28.3 µM

Question: What about the GI50 (PC-3 prostate) of the same compound?
Answer: 2.72 µM

Question: What about the TGI (PC-3 prostate) of the same compound?
Answer: 21.9 µM

Question: What about the GI50 (SN12C renal) of the same compound?
Answer: 10.6 µM

Question: What about the TGI (SN12C renal) of the same compound?
Answer: 23.5 µM

Question: What about the GI50 (DU-145 prostate) of the same compound?
Answer: 1.05 µM

Question: What about the TGI (DU-145 prostate) of the same compound?
Answer: 16.6 µM

Question: And the GI50 (COLO 205 colon)?
Answer: 3.98 µM

Question: And the TGI (COLO 205 colon)?
Answer: 23 µM
